What is called LC50 is the concentration that kills 50% of the test population.

The source of these data is ChEMBL document CHEMBL1149751, “Bioactive constituents from the twigs of Asimina parviflora” (J Nat Prod, 1992).

Data set [1] is described as follows: Toxicity in brine shrimp. It is filed as organism-based. The following applies: artemia, in vivo.
The subject of the next data set is A549. In words: Cytotoxicity against human A549 cells after 7 days. Format: functional. The settings on record: for EC50: Homo sapiens, A549, 168 h, read-out: ED50 (the source's name).
For a further data set, the system named is MCF7. The data set can be described thus: Cytotoxicity against human MCF7 cells after 7 days. Format: functional. The following applies: MCF7, 168 h, read-out: ED50 (the source's name).
A further data set concerns HT-29. The data set can be described thus: Cytotoxicity against human HT-29 cells after 7 days. Format: functional. The settings on record: for EC50: Homo sapiens, HT-29, 168 h, read-out: ED50 (the source's name).

Converted amounts (≈) assume the structure as drawn. A value given as a limit tells only on which side of the number the result lay.

`CCCCCCCCCCCCCCC/C=C\CCCCC(N)=O` returned a median lethal concentration (LC50) in data set [1] of 2.45 mg/L (≈ 7.26 µM). Also, the EC50 in the data set on A549 is 3.16 mg/L (≈ 9.36 µM); in the data set on MCF7, 2.91 mg/L (≈ 8.62 µM); in the data set with HT-29 it was less than 0.01 mg/L.
The compound `COc1c(OC)c2c(C)cc3c(O)cccc3c2[nH]c1=O` [ASIMICILONE] yielded an LC50 in data set [1] of 2.15 mg/L (≈ 7.54 µM). For the same compound, the EC50 turned out to be 2.13 mg/L (≈ 7.47 µM) with A549, 7.22 mg/L (≈ 25.3 µM) in the data set with MCF7 and 3.25 mg/L (≈ 11.4 µM) with HT-29.
On to `CCCCCCCCCCC(O)C1CCC(C2CCC(C(O)CCCCCCCC[C@H](O)CC3=C[C@@H](C)OC3=O)O2)O1` (stereo partly drawn) [ASIMICIN], for which the ED50 in the data set with A549 is 8.43 ×10⁻⁴ ug/ml; in the data set on HT-29 it was less than 1 ×10⁻¹⁵ ug/ml.
On to `CCCCCCCCCC[C@@H](O)[C@H]1CC[C@H]([C@H]2CC[C@H]([C@H](O)CCCCCCCCCC[C@@H](O)CC3=C[C@H](C)OC3=O)O2)O1` [ASIMICIN], for which the LC50 in data set [1] is 0.025 mg/L (≈ 0.0401 µM).
Take `COc1cccc2c1C(=O)c1c(O)c3c(c(O)c1C2=O)C[C@@](O)(C(=O)CO)C[C@@H]3O[C@H]1C[C@H](N)[C@H](O)[C@H](C)O1` [DOXORUBICIN]: the LC50 in data set [1] came to 0.088 mg/L (≈ 0.162 µM). The compound further returned an ED50 in the data set on A549 of 5.04 ×10⁻⁴ ug/ml. Also, the results for the EC50 in the data set on MCF7 and with HT-29 were 0.231 mg/L (≈ 0.425 µM) and 0.00445 mg/L (≈ 0.00819 µM), respectively.
The compound `CC[C@H](CC[C@@H](C)[C@H]1CC[C@H]2[C@@H]3CC=C4C[C@@H](O[C@@H]5O[C@H](CO)[C@@H](O)[C@H](O)[C@H]5O)CC[C@]4(C)[C@H]3CC[C@]12C)C(C)C` [SITOGLUSIDE] returned an LC50 in data set [1] of 0.14 mg/L (≈ 0.243 µM). The EC50 with A549 worked out at 4.73 mg/L (≈ 8.2 µM); in the data set on MCF7, 44.4 mg/L (≈ 77 µM); in the data set with HT-29, 0.444 mg/L (≈ 0.77 µM).
Compound `COc1cc([C@H]2OC[C@H]3[C@@H]2CO[C@@H]3c2cc(OC)c(O)c(OC)c2)cc(OC)c1O` [SYRINGARESINOL] registered an LC50 in data set [1] of 0.65 mg/L (≈ 1.55 µM). Also, the EC50 in the data set with A549 is 13.9 mg/L (≈ 33.3 µM); in the data set on MCF7 it was 30.3 mg/L (≈ 72.4 µM); in the data set with HT-29 it was 0.227 mg/L (≈ 0.542 µM).
